Where a name gives a salt, the structure may show the parent alone.
Experiments:
Format in all cases: in vivo
[1] = test system: BALB/cJRj mice; test: Elevated plus maze (EPM), acute anxiolytic-like effect; conditions: single dose 1.5 mg/kg; 24 hours after the injection
[2] = test system: BALB/cJRj mice; test: Novelty suppressed feeding (NSF), acute anxiolytic-like effect; conditions: for lag for feeding in the NSF: single dose 1.5 mg/kg, 72 hours after the injection
Method: RS67333 (1.5 mg/kg, i.p.), diazepam (1.5 mg/kg, i.p.), fluoxetine (18 mg/kg, i.p.) were injected 45 min before testing in the Elevated Plus Maze (EPM), the Novelty Suppressed Feeding (NSF) or the Open Field (OF) in three independent cohorts of male BALB/cJRj mice.
To ensure the selectivity of the anxiolytic-like effects of RS67333, in a new cohort of male BALB/cJRj mice, GR125487 (1.0 mg/kg, i.p.) dissolved in 0.9% NaCl solution, was injected 15 minutes before RS67333 administration (1.5 mg/kg, i.p.). EPM or NSF occurred 45 min after RS67333 administration (A-S1). Behavioral consequences of the co-administration of GR125487+RS67333 were compared to RS67333 alone, diazepam (1.5 mg/kg, i.p.) fluoxetine (18 mg/kg, i.p.) and vehicle groups (0.9% saline solution, i.p.).
For mPFC drug infusion, two bilateral cannulae (75 μm-diameter silica capillary tubing inserted in 27G stainless steel catheter) were implanted in the mPFC [stereotaxic coordinates in mm from bregma: A=+2.10, L=±0.50, V=−2.60, A, anterior; L, lateral; and V, ventral, according to (A-S10)] under anesthesia (chloral hydrate, 400 mg/kg, i.p.). […] Diazepam (1.5 mg/kg) was used as a positive control.
The NSF is a conflict test that elicits competing motivations: the drive to eat and the fear of venturing into the center of a brightly lit arena. The latency to begin eating is used as an index of anxiety/depression-like behavior, because classical anxiolytic drugs as well as chronic antidepressants decrease this measure. The NSF test was carried out during a 10 min period as previously described (A-S12). Briefly, the testing apparatus consisted of a plastic box (50×50×20 cm), the floor of which was covered with approximately 2 cm of wooden bedding. Twenty-four hours prior to behavioral testing, all food was removed from the home cage. At the time of testing, a single pellet of food (regular chow) was placed on a white paper platform positioned in the center of the box. Each animal was placed in a corner of the box, and a stopwatch was immediately started. The latency to eat (defined as the mouse sitting on its haunches and biting the pellet with the use of forepaws) was timed. Immediately afterwards, the animal was transferred to its home cage, and the amount of food consumed by the mouse in the subsequent 5 min was measured, serving as a control for change in appetite as a possible confounding factor.

[3] = test system: BALB/cJRj mice; test: OF with optogenetic inhibition of mPFC terminals in the DRN (CaMKII-ArchT); conditions: intra-mPFC RS67333 0.5 pg/side or diazepam 1.5 pg/side; for inhibition of the drug-induced increase in center time (OF) during 3-min green light illumination: light ON
Excerpt: (§1) Motor activity was quantified in four 39×39 cm perpex plastic open field boxes (Vivo-tech/Ugo Basile, Salon de Provence, France). The apparatus was illuminated from the ground with special designed 40×40 cm Infra-red backlights (monochromatic wavelength 850 nm high homogeneity, Vivo-tech, Salon de Provence, France). Activity chambers were monitored by four black and white cameras with varifocal optics and polarizing filters (Vivo-tech, Salon de Provence, France). For optogenetic experiments, optical bandpass filters were specifically selected to improve tracking detection. The whole set-up was controlled using ANYMAZE version 6 video tracking software (Stoelting Co/Vivo-tech, Salon de Provence, France). Dependent measures were time in the center over a 10 min for systemic administration or 6 min test period for optogenetic experiments, total ambulatory distance and ambulatory distance traveled in the center divided by total distance.
(§2) To target opsin expression selectively to cortical glutamatergic terminals in the DRN, AAV5-CaMKIIα-ChR2-enhanced yellow fluorescent protein (eYFP), AAV5-CaMKII-ArchT-green fluorescent protein (GFP) or AAV5-CaMKII-eYFP, obtained from Karl Deisseroth and Ed Boyden (UNC Vector Core, NC, USA) were bilaterally injected into the mPFC (in mm from bregma, A=+2.10, L=±0.50, V=−2.60). Mice injected with AAV5-CamKII-eYFP were used as control.
(§3) BALB/cJRj mice were surgically implanted with fiber optics targeted to the DRN (in mm from bregma, A=−4.50, L=+1.20, V=−4.0, angle 15°). A […] core, 0.37 NA fiber optic (ThorLabs, ˜10-12 and 15-16 mW for ChR2 and Arch-T, respectively, at the tip of optic) was used for optical stimulation via a patch cable connected to either a 473 or 532 nm laser diode (OEM laser systems, USA) as previously described (A-S15). For behavioral experiments, AAV5-CaMKIIα-ChR2-eYFP mice and their controls received a 10 Hz stimulation, 20 ms pulses, over a 3-minute period whereas a green light was delivered continuously to AAV5-CaMKII-ArchT-GFP throughout the 3 min testing period. Similar doses of RS67333 (locally in the mPFC at […] or at 1.5 mg/kg, i.p.) and diazepam (locally in the mPFC at […] or at 1.5 mg/kg, i.p.) were infused in the mPFC or administered i.p. The stimulation or the inhibition of mPFC projections in the DRN occurred simultaneously to the behavioral paradigms.

[4] = test system: BALB/cJRj mice; test: Open field paradigm (OF), acute anxiolytic-like effect; conditions: for percent time spent in Center (OF) vs vehicle: male BALB/cJRj, RS67333 1.5, diazepam 1.5, fluoxetine 18 mg/kg; for time spent in the center of the OF: single dose 1.5 mg/kg, 48 hours after the injection
Excerpt: as §1

[5] = test system: BALB/cJRj mice; test: EPM with optogenetic inhibition of mPFC terminals in the DRN (CaMKII-ArchT); conditions: for time, percent time spent in the open arms (EPM), light OFF / inhibition of the drug-induced increase in open-arm time (EPM) during 3-min green light illumination: intra-mPFC RS67333 0.5 pg/side or diazepam 1.5 pg/side; for inhibition of the drug-induced increase in open-arm time (EPM) during 3-min green light illumination: light ON
Method: The EPM is a widely used behavioral assay for rodents and it has been validated to assess the anti-anxiety effects of pharmacological agents (A-S11). This test was performed as described by (A-S1). The maze is a plus-cross-shaped apparatus, with two open arms and two arms closed by walls linked by a central platform 50 cm above the floor. Mice were individually put in the center of the maze facing an open arm and were allowed to explore the maze during 5 min for the behavioral consequences of an acute systemic administration or mPFC infusion and during 6 min for the optogenetic experiments. The time spent in and the numbers of entries into the open arms were used as an anxiety index. All parameters were measured using a videotracker (EPM3C, Bioseb, Vitrolles, France).
as §2, §3

[6] = CaMKII-ArchT-mPFC injected mice, systemic RS67333 1.5 mg/kg or diazepam 1.5 mg/kg
[7] = CamKII-ArchT mice, intra-mPFC infusion

Row | Compound | anxiolytic effects in the EPM [1] | latency to feed (NSF) vs vehicle ([2]; intra-mPFC infusion of RS67333 45 min before testing) | latency to feed (NSF) vs vehicle ([2]; male BALB/cJRj, i.p. 45 min before testing, RS67333 1.5, diazepam 1.5, fluoxetine 18 mg/kg) | lag for feeding in the NSF [2] | time spent in the center (OF), light OFF [3] | inhibition of the drug-induced increase in center time (OF) during 3-min green light illumination [3] [%] | percent time spent in Center (OF) vs vehicle ([4]; i.p. 45 min before testing) | time spent in the center of the OF [4] | decrease in time spent in the open arms (EPM), light ON vs light OFF [5, 6] [%] | time, percent time spent in the open arms (EPM), light OFF ([5]; CamKII-ArchT mice) | inhibition of the drug-induced increase in open-arm time (EPM) during 3-min green light illumination ([5]; CamKII-ArchT mice) [%] | latency to feed (NSF) vs vehicle ([2]; male BALB/cJRj, i.p. 45 min before testing, RS67333 1.5, diazepam 1.5, fluoxetine 18 mg/kg, hydrochloride) | ratio of ambulatory distance in the center divided by total distance (OF) vs vehicle ([4]; i.p. 45 min before testing, RS67333 1.5, diazepam 1.5 mg/kg) | time, percent time in open arms and ratio open arms/total distance (EPM), light OFF vs vehicle [5, 6] | drug-induced increase of ratio open arms/total distance (EPM), light ON [5, 7] | ratio of ambulatory distance in open arms divided by total distance (EPM), light OFF vs controls [5, 7]
1 | CCCCN1CCC(CCC(=O)c2cc(Cl)c(N)cc2OC)CC1.Cl [RS-67,333, 1-(4-amino-5-chloro-2-methoxyphenyl)-3-[1(n-butyl)-4-piperidinyl]-1-propanone HCl] | have not identified the anxiolytic effects expected | decreased latency to feed | decreased the latency to feed | reduced the lag for feeding | increased significantly the time spent in the center | 85±20 | increase | increased the time spent in the center | 24 | increased significantly time | 70±8 |  |  |  |  | 
2 | CN1C(=O)CN=C(c2ccccc2)c2cc(Cl)ccc21 [diazepam, Diazepam hydrochloride] | have not been able to observe any long-term activity |  |  | have not been able to observe any long-term activity | increased significantly the time spent in the center | 80±22 | increase | have not been able to observe any long-term activity | 17 | increased significantly time | 85±5 | decreased the latency to feed | significantly increased | increased time, percent time spent in open arms | blocked | increased the ratio

Reference: patent publication US20220031684A1, “PROPHYLACTIC EFFICACY OF SEROTONIN 4 RECEPTOR AGONISTS AGAINST STRESS” (THE TRUSTEES OF COLUMBIA UNIVERSITY IN THE CITY OF NEW YORK, priority 2019, published 2022)
